# Results published in US20070191397A1, “Fungicidal mixtures based on oxime ether derivatives” (priority 2004, published 2007).
# What was measured:
# Puccinia recondita = assay: Curative action against brown rust of wheat caused by Puccinia recondita; type: in vivo; conditions: wheat cultivar Kanzler, 7 days
# Method: (§1) The active compounds, separately or jointly, were prepared as a stock solution with 0.25% by weight of active compound in acetone or DMSO. 1% by weight of the emulsifier Uniperol® EL (wetting agent having emulsifying and dispersing action based on ethoxylated alkylphenols) was added to this solution, and the solution was diluted with water to the desired concentration.
# (§2) Evaluation was carried out by determining the infected leaf areas in percent. These percentages were converted into efficacies. The efficacy (E) is calculated as follows using Abbot's formula: E=(1−α/β)·100 α corresponds to the fungicidal infection of the treated plants in % and β corresponds to the fungicidal infection of the untreated (control) plants in %
# (§3) An efficacy of 0 means that the infection level of the treated plants corresponds to that of the untreated control plants; an efficacy of 100 means that the treated plants were not infected.
# (§4) The expected efficacies of the mixtures of active compounds are determined using Colby's formula [R.S. Colby, Weeds 15, 20-22 (1967)] and compared with the observed efficacies. Colby's formula: E=x+y−x·y/100 E expected efficacy, expressed in % of the untreated control, when using the mixture of the active compounds A and B at the concentrations a and b x efficacy, expressed in % of the untreated control, when using active compound A at the concentration a y efficacy, expressed in % of the untreated control, when using active compound B at the concentration b
# Leaves of wheat seedlings of the cultivar “Kanzler”, grown in pots, were dusted with spores of brown rust (Puccinia recondita). The pots were then placed in the chamber with high atmospheric humidity (90-95%), at 20-22° C., for 24 hours. During this time the spores germinated and the germinal tubes penetrated into the leaf tissue. The next day, the infected plants were sprayed to runoff point with an aqueous suspension having the concentration of active compounds stated below. After the spray coating had dried on, the test plants were cultivated in a greenhouse at 20-22° C. and 65-70% relative atmospheric humidity for 7 days. Thereafter, the extent of the rust fungus development on the leaves was determined.
# [1] = tested on: Erysiphe [syn. Blumeria] graminis form a specialis tritici; assay: Activity against mildew of wheat caused by Erysiphe [syn. Blumeria] graminis forma specialis tritici; type: in vivo
# Method: as §1, §2, §3, §4
# Leaves of wheat seedlings of the cultivar “Kanzler” grown in pots, were sprayed to runoff point with an aqueous suspension having the concentration of active compounds stated below. 24 hours after the spray coating had dried on, dusted with spores of mildew of wheat (Erysiphe [syn. Blumeria] graminis form a specialis tritici). The test plants were then placed in a greenhouse at 20-24° C. and 60-90% relative atmospheric humidity. After 7 days, the extent of the mildew development was determined visually in % infection of the entire leaf area.
Structure (SMILES),Efficacy in % of the untreated control (Puccinia recondita; 1 ppm in the spray liquor),Efficacy in % of the untreated control (Puccinia recondita; 4 ppm in the spray liquor),"Efficacy in % of the untreated control ([1]; 0.25 ppm in the spray liquor, wheat cultivar Kanzler, sprayed 24 h before inoculation, 7 days)","Efficacy in % of the untreated control ([1]; 1 ppm in the spray liquor, wheat cultivar Kanzler, sprayed 24 h before inoculation, 7 days)","Efficacy in % of the untreated control ([1]; 4 ppm in the spray liquor, wheat cultivar Kanzler, sprayed 24 h before inoculation, 7 days)",Efficacy in % of the untreated control ([1]; 0.25 ppm),Efficacy in % of the untreated control (Puccinia recondita; 0.06 ppm in the spray liquor),Efficacy in % of the untreated control (Puccinia recondita; 0.25 ppm in the spray liquor)
"CC1CCN(c2c(-c3c(F)cc(F)cc3F)c(Cl)nc3ncnn23)CC1 [I, 5-chloro-7-(4-methylpiperidin-1-yl)-6-(2,4,6-trifluoro-phenyl)-[1,2,4]triazolo[1,5-a]pyrimidine]",0%,89%,0%,9%,60%,–,–,–
O=C(Cc1ccccc1)N/C(=N\OCC1CC1)c1c(C(F)(F)F)ccc(F)c1F [II.1],–,–,–,–,–,70%,–,–
O=C(Cc1ccccc1)N/C(=N\OCC1CC1)c1c(OC(F)F)ccc(F)c1F [II.14],0%,–,–,–,–,–,0%,0%
